The values below come from paper PMC6254728, “Synthesis and Anti-Human Immunodeficiency Virus Type 1 Activity of (E)-N-Phenylstyryl-N-alkylacetamide Derivatives” (Molecules, 2009).

Structures are written as SMILES.

The experiment concerns the target T1, HIV-1 reverse transcriptase (HIV-1 RT) (HIV-1 M:B_HXB2R, UniProt P04585).
T1 construct: gene gag-pol; recombinant HIV-1 RT used with commercial ELISA kit (Roche Molecular Biochemicals); mature chains cut from Gag-Pol polyprotein; with p51 RT
Description: RT ELISA (DIG-labelled reaction mixture, anti-DIG-POD, ABTS; Roche kit). Type of experiment: biochemical. The following applies: 37 °C, 15 h. From the text:
RT ELISA (DIG-labelled reaction mixture, anti-DIG-POD, ABTS; Roche kit) on HIV-1 reverse transcriptase (HIV-1 RT)
For orientation: ELISA stands for enzyme-linked immunosorbent assay.
For the molecule `CC(=O)N(C)/C=C/c1ccccc1C` [5p, (E)-N-(2-methylstyryl)-N-methylacetamide], the IC50 (as a rule, the concentration needed to halve the response being measured) worked out at 487 ± 27 µM. In the case of `CC(=O)N(/C=C/c1ccccc1Br)C(C)=O` [5f, (E)-N-(2-bromostyryl)-N-acetylacetamide] it was 320 ± 22 µM; in that of `CC(=O)N(C)/C=C/c1ccccc1F` [5n, (E)-N-(2-fluorostyryl)-N-methylacetamide], 477 ± 107 µM; in that of `CC(=O)N(/C=C/c1ccccc1Br)Cc1cc(F)cc(F)c1` [5i, (E)-N-(2-bromostyryl)-N-3’,5’-difluorobenzylacetamide], 97 ± 13 µM.

In the case of `COc1ccc(/C=C/N(C)C(C)=O)c(OC)c1` [5r, (E)-N-(2,4-dimethoxystyryl)-N-methylacetamide], the IC50 was found to be 373 ± 40 µM. In the case of `CCN(/C=C/c1ccccc1Cl)C(C)=O` [5l, (E)-N-(2-chlorostyryl)-N-ethylacetamide] it was 521 ± 11 µM; in that of `CC(=O)N(C)/C=C/c1ccccc1Br` [5c, (E)-N-(2-bromostyryl)-N-methylacetamide], 339 ± 107 µM.

For the molecule `CC(=O)N(C)/C=C/c1ccccc1Cl` [5k, (E)-N-(2-chlorostyryl)-N-methylacetamide], the IC50 worked out at 434 ± 44 µM. In the case of `O=C(O)P(=O)(O)O` [PFA, reference compound] it was 5 µM; in that of `CC(=O)N(/C=C/c1ccccc1Br)Cc1c(F)cccc1F` [5h, (E)-N-(2-bromostyryl)-N-2’,6’-difluorobenzylacetamide], 295 ± 9 µM.
